The values below come from patent US11304927B2, “Bioactive extract, fraction of Cassia occidentalis and formulation thereof for bone regeneration” (COUNCIL OF SCIENTIFIC AND INDUSTRIAL RESEARCH, priority 2018, dated 2022).

The conditions of data set [1]: rat, in vivo, 250 mg/kg. The protocol: LC-MS/MS-API 4000 (Q-TRAP) triple quadrupole (AB-SCIEX, Toronto, Canada). The mass spectrometer was operated using an electrospray atmospheric pressure ionization source in positive ion mode.
a) Fingerprinting of 219/C002 Extract
Primary stock: 1 mg/mL in DMSO
Secondary stock: 50 ng/mL in Methanol
Continuous injection at 10 μL/min from secondary stock.
b) Fingerprinting of Blank Rat Plasma:
Blood was collected from overnight fasted rats and plasma was seperated. Plasma was precipitated with methanol (1:5 v/v), vortexed and centrifuged. The supernatant was collected and diluted with methanol (1:10 v/v). Continuous injection at 10 μL/min
c) Fingerprinting of 250 mg/kg (Oral) 219/C002 Treated Rat Plasma
Overnight fasted rats were administered 250 mg/kg 219/C002 extract suspension orally. Blood was collected after 45 min and plasma was separated. Plasma was precipitated with methanol (1:5 v/v), vortexed and centrifuged. The supernatant was collected and diluted with methanol (1:10 v/v). Continuous injection into the column at 10 μL/min.
The mass spectrometer [LC-MS/MS-API 4000 (Q-TRAP) triple quadrupole (AB-SCIEX, Toronto, Canada)] was used for the assay. Overnight fasted rats were administered 250 mg/kg extract suspension orally. Blood was collected after 45 min and plasma was separated. Plasma was precipitated with methanol, vortexed and centrifuged. The supernatant was collected and diluted with methanol. Continuous injection at 10 μL/min was done for extract, blank plasma and extract treated plasma.

In data set [2] the test system is type 1 collagen (col1) mRNA. As to the kind of experiment: qPCR osteogenic gene expression in rat calvarial osteoblast. The class given is cell-based. To be noted: mRNA by qPCR, 48 h, active concentration of the compounds. For orientation: In qPCR the cycle at which signal appears reflects the starting amount.
Data set [3] has as its system Rat calvarial osteoblasts (RCO). As to the kind of experiment: Alkaline phosphatase (ALP) assay, osteoblast differentiation. The note with it: 48 h, ALP activity. The data set is classed as cell-based. The protocol: Calvaria from ten to twelve 1-2 day old rat pups were harvested, cleaned, and subjected to five sequential enzymatic digestions (0.1% diaspase and 0.1% collagenase I) of 10-15 min each. Cells from second to fifth digestion were collected, centrifuged, re-suspended and cultured in α-MEM containing 10% fetal bovine serum (FBS) and 1% penicillin/streptomycin (complete growth medium).
For ALP assay, RCO were trypsinized at 80% confluence and 2×10^3 cells/well were seeded onto 24-well plates. Cells were treated with different compounds isolated from extract & vehicle for 48 h in α-MEM supplemented with 10 mM β-glycerophosphate, […] and 1% penicillin/streptomycin (osteoblast differentiation medium).
At the end of the experiment, cells were washed with PBS, freeze fractured by placing the plates at −70° C. for 15 minutes followed by bringing to room temperature. ALP activity was measured by adding 100 µl p-nitrophenylphosphate buffer (2 mg/ml pNPP and 0.25 mM MgCl2 in 1 M diethanolamine). The absorption was measured at 405 nm with a microplate reader.

The next data set has as its system Runx2 mRNA. Nature of the data set: qPCR osteogenic gene expression in rat calvarial osteoblast. The note with it: mRNA by qPCR, 48 h, active concentration of the compounds. The data set is classed as cell-based.
The subject of a further data set is BMP2 mRNA. Described as above. The note with it: mRNA by qPCR, 48 h, active concentration of the compounds. The data set is classed as cell-based.
The test system of a further data set is osteopenic mice. As to the kind of experiment: Osteopenic (OVX) mice model. The data set is classed as in vivo, balb/c mice. How it is done: 50 adult female balb/c mice (20±3 g, 10-12 months) underwent either sham surgery or ovariectomy (OVX). 6 weeks post-surgery, mice were scanned using μCT to ensure development of osteopenia. Treatments of 219/[…] (5 mg/kg), 219/[…] (1 mg/kg and 5 mg/kg), PTH (40 μg/kg) and vehicle (water) were given to OVX mice with osteopenia for another 6 weeks, and vehicle treatment was given to sham operated mice for the same duration (n=10/group). After 6 weeks all mice were sacrificed and bones were collected for further experiment. A high-resolution X-ray micro-computed tomographic (μCT) for two-dimensional (2D) and three-dimensional (3D) assessment of bones (excised bones) were carried out using a Sky Scan 1076 μCT scanner (SkyScan, Ltd, Kartuizersweg, Kontich, Belgium). Briefly, after scanning bone samples at a nominal resolution (pixels) of 9 μm, cross-sectional reconstruction was made using SkyScanNrecon software based on a modified Feldkamp algorithm. To analyze trabecular bone, region of interest was drawn on a total of 100 slices in the region of secondary spongiosa situated 1.5 mm away from the distal border of growth plate (GP) excluding primary spongiosa and cortical bone. Quantification was done by employing Batman software encumbered with trabecular (3D) and cortical (2D) bone programs. Using μCT scans, trabecular bone mineral density (BMD) of femurs was determined from the volume of interest made for cortical and trabecular region, respectively. […] Bone mechanical strength was examined by three-point bending of femur diaphysis with bone strength tester TK […] (Muromachi Kikai Co. Ltd, Tokyo, Japan).

Data set [4] relates to MP treated animals (adult male SD rats). As to the kind of experiment: MP induced secondary osteoporosis model. The class given is in vivo, rat. The note with it: MP 5 mg/Kg s.c. 1 month, MP alone or MP+219/C002 250 mg/kg, 219/F005 100 mg/kg, 219/F005-F 50 mg/kg. How it is done: 50 adult male SD rats (260±20 g, 8-10 months) were divided into 5 groups. 5 mg/Kg methylprednisolone was administered subcutaneously for 1 month to induce osteoporosis. 219/C002 (250 mg/kg), 219/F005 (100 mg/Kg), 219/F005-F (50 mg/kg) treatment were given to check the efficacy of the extract and its different fraction along with methylprednisolone (n=10/group). After 1 month all rats were sacrificed and bones were collected for further experiment.
A high-resolution X-ray micro-computed tomographic (μCT) for two-dimensional (2D) and three-dimensional (3D) assessment of bones (excised bones) were carried out using a Sky Scan 1076 μCT scanner (SkyScan, Ltd, Kartuizersweg, Kontich, Belgium). Briefly, after scanning bone samples at a nominal resolution (pixels) of 9 μm, cross-sectional reconstruction was made using SkyScanNrecon software based on a modified Feldkamp algorithm. To analyze trabecular bone, region of interest was drawn on a total of 100 slices in the region of secondary spongiosa situated 1.5 mm away from the distal border of growth plate (GP) excluding primary spongiosa and cortical bone. Quantification was done by employing Batman software encumbered with trabecular (3D) and cortical (2D) bone programs. Using μCT scans, trabecular bone mineral density (BMD) of femurs was determined from the volume of interest made for cortical and trabecular region, respectively. For calibration, hydroxyl apatite phantom rods of 4 mm of diameter with known BMD (0.25 g/cm^3 and 0.75 g/cm^3) were employed.
Animals were kept in metabolic cages without food but with respective treatment and ad libitum water. Fasting serum samples were collected after 24 h. Serumprocollagen type I N-terminal propeptide (PINP) levels were determined by ELISA (MyBioSource, USA.), following the manufacturer's protocols.
Bone mechanical strength was examined by three-point bending of femur diaphysis with bone strength tester TK 252C (Muromachi Kikai Co. Ltd, Tokyo, Japan).

For the molecule `O=c1cc(-c2ccc(O)cc2)oc2cc(O)ccc12` [219/K009, 7,4′-dihydroxy flavone], the “oral absorption: detection in plasma” value in data set [1] is “detected in extract and in extract-treated rat plasma but not in blank rat plasma”. Moreover, the Col1 expression result in data set [2] is “promoted”. Moreover, the osteogenic concentration result in data set [3] is “(10 nM)”. In the data set with Runx2 mRNA, the RunX2 expression result is listed as “promoted”.

As for `O=c1cc(-c2ccc(O)c(O)c2)oc2cc(O)ccc12` [219/K011, 7,3′,4′-trihydroxy-flavone], in the data set with BMP2 mRNA, the BMP2 expression result is reported as “promoted BMP2 expression”. In addition, the Col1 expression entry in data set [2] is listed as “promoted”. The osteogenic concentration entry in data set [3] is “(10 nM)”. The RunX2 expression entry in the data set with Runx2 mRNA is “promoted”.

In the case of `O=c1cc(-c2ccc(O)c(O)c2)oc2cc(O)cc(O)c12` [219/K010, Luteolin], in data set [3], the osteogenic concentration entry is “(1 nM)”.

With `O=C(O)c1ccccn1` [Picolonic acid], in data set [1], the “oral absorption: detection in plasma” value was “detected in extract and in extract-treated rat plasma but not in blank rat plasma”.

`O=c1cc(-c2ccc(O)cc2)oc2cc(O)cc(O)c12` [219/K007, Apigenin]: the “oral absorption: detection in plasma” value in data set [1] is “detected in extract and in extract-treated rat plasma but not in blank rat plasma”. In addition, the Col1 expression entry in data set [2] is listed as “promoted”. For the same molecule, the “femur cortical strength (three-point bending)” value in the data set with osteopenic mice (6 weeks treatment) is “partially improve cortical strength”. For the same molecule, the osteogenic concentration result in data set [3] is reported as “(1 μM)”. The RunX2 expression entry with Runx2 mRNA is listed as “promoted”.

On to `C[C@H]1C[C@@H]2[C@H]([C@@H](O)C[C@@]3(C)[C@H]2CC[C@]3(O)C(=O)CO)[C@@]2(C)C=CC(=O)C=C12` [MP, Methylprednisolone], for which, in data set [4] (mean, n=10), the BMD was determined as 0.281 gm-HA/cm^3, the BV/TV worked out at 18.33% and the “Serum PINP” value was 50.17 ng/mL. Also, in data set [4] (femur three-point bending), the Energy was 75.67 mJ, the Max power came out at 82.17 N and the Stiffness came out at 108.17 N/mm.

On to `O=c1cc(-c2ccc(O)cc2)oc2cc(O)c([C@@H]3O[C@H](CO)[C@@H](O)[C@H](O)[C@H]3O)c(O)c12` [219/K017, Isovitexin], for which, in the data set on BMP2 mRNA, the BMP2 expression entry is “promoted BMP2 expression”. In addition, the “oral absorption: detection in plasma” value in data set [1] was “detected in extract and in extract-treated rat plasma but not in blank rat plasma”. Besides, in data set [2], the Col1 expression result is given as “promoted”. Besides, in the data set on osteopenic mice (5 mg/Kg, 6 weeks), the “femur trabecular microarchitecture (BMD, BV/TV)” value is listed as “completely restored femur trabecular microarchitecture”. Also, in the data set on osteopenic mice (6 weeks treatment), the “bone strength of femur, higher than with 219/K007 (apigenin) treatment” value came to 80%; the “femur cortical strength (three-point bending)” value is “restored femur cortical strength”; the “total bone volume of femur, higher than with 219/K007 (apigenin) treatment” value worked out at 72%. The osteogenic concentration result in data set [3] was “(1 μM)”. Further, the RunX2 expression result in the data set with Runx2 mRNA is recorded as “promoted”.

Turning to `Cc1cc(O)c2c(c1)C(=O)c1cc(O)cc(O)c1C2=O` [219/K012, Emodin], in data set [3], the osteogenic concentration result is reported as “(10 nM)”.
